Entries after “also recorded” stand apart in the source; their conditions may differ.

In data set [1] the test system is diet-induced obese mice (C57Bl/6, 60% high fat diet). Kind of data set: Diet induced obese mice: IP-GTT and hyperinsulinemic euglycemic clamp. Format: in vivo. The conditions noted are these: 10 mg/kg I.P. daily. On the procedure: Twenty-three (23) week old C57Bl/6 mice are placed on 60% high fat diet (HFD). After 9 weeks of HFD, mice are injected daily with either vehicle (PBS/NaCO3) or fisetin-3-O-methylphosphonate (compound 3) at a dosage of 10 mg/kg delivered via I.P. injection. HFD is continued throughout the injection period. After 2 weeks (week 10 and 11) of injection, mice are tested for basal blood (non-fasted) glucose levels by tail blood withdrawal. After 3 weeks (week 12) of injection, IP glucose tolerance test (IP-GTT) is performed at a dose of 1 gm dextrose per kilogram body weight. After 4 weeks (week 13) of injection, cannulation surgery is performed on anesthetized mice. Mice are allowed to recover 6 days. After 6 days, hyperinsulinemic euglycemic clamp studies are performed on the mice. After 7 weeks (week 16) of injections, a second IP-GTT is performed on the mice. Three days after the second IP-GTT, mice are sacrificed and blood and tissue samples are collected for further analysis.

Data set [2] has as its system ZDF rats. As to the kind of experiment: Oral glucose tolerance test (OGTT) in ZDF rats after the 4 week study. In kind it is in vivo. The settings on record: glucose 2 g/Kg PO. On the procedure: Following the 4 week study described in Example 26 above, the animals were fasted for 12 hours and on day-29, pre-drug blood samples are collected and glucose level and insulin level are measured. The animals are treated intraperitoneally (i.p.) with the following compounds:
Thirty (30) minutes after the treatment, pre-glucose blood samples are collected and the animals are then dosed with glucose (2 g/Kg, PO). Tail vein blood samples are collected at 30, 60, 90 and 120 minutes. Glucose levela and insulin leveal are measured. FIG. 31 show the plasma glucose level measured during OGTT. […] FIG. 32 show the plasma insulin level measured during OGTT. Phosphonated pyrone analogs raise insulin output in response to OGTT.

The test system of data set [3] is ZDF rats. Kind of data set: Pancreas histopathology, insulin staining and TUNEL in ZDF rats. The conditions noted are these: following four weeks of daily treatment. Format: in vivo. An excerpt: Pancreas samples from Example 26 are stored in 10% NBF and used in this study. All tissue samples were processed through graded alcohols, cleared in xylene and infiltrated and embedded into paraffin. For the pancreas four 4 micron sections were cut, one was stained with Hematoxylin and Eosin for histopathology, two were immunohistochemically stained with an antibody to insulin to determine beta cell mass and one was stained for apoptosis with the tunel technique.
The insulin staining procedure was performed as follows: Endogenous peroxidase activity was inhibited by incubation in 3% hydrogen peroxide. Non-specific staining was blocked with DAKO Protein Block Serum-Free (Dako, Carpinteria, Calif.). Insulin positive cells were immunohistochemically stained with a polyclonal guinea pig anti-swine insulin antibody at room temperature for 30 minutes (Dako, Carpinteria, Calif.). After incubation with primary antibody, the tissue sections were sequentially incubated with Envision+ HRP Rabbit (Dako, Carpinteria, Calif.). Staining was developed with Liquid DAB+ (Dako, Carpinteria, Calif.) and counterstained with hematoxylin.
Pancreas samples were stained for apoptosis as follows: 4 micron sections were cut and stained for TUNEL utilizing the following kit In Situ Cell Death Detection Kit, AP (Roche Applied Science, catalog 11 684 809 910).

Another data set relates to male ZDF rats. Kind of data set: 4 week study in ZDF rats (compound 2, compound 3). Format: in vivo. An excerpt:
Seven week old male ZDF rats are used for the study.
Experimental Design: This study is a 4 week study Using 32 7-week old male ZDF rats, divided into 4 treatment arms (8 rats/arm).

In data set [4] the test system is BB19 cells, human BCECs (brain capillary endothelial cells). Kind of data set: Tacrolimus uptake assay. In kind it is cell-based. The conditions noted are these: Endothelial cell, 1 h, 0.1 μM test compound, 1 hour incubation, 3H-tacrolimus 34 nM, read-out: cell associated ^3H-tacrolimus uptake, % of control. The protocol:
(§1) BB19 cells, human BCECs (brain capillary endothelial cells) immortalized with the E6E7 genes of human papilloma virus, were kindly provided from Jacques G. Prudhomme, Department of Biology, University of California, Riverside, U.S.A. The cells were cultured as monolayer culture in Amniomax™-C100 basal medium (catalog number 17001-157) with Amniomax™-C100 supplement (catalog number 12556-049) (Invitrogen, Basel, CH).
(§2) Cells were seeded onto culture surfaces precoated with 10 μg/cm^2 rat tail collagen type I (BD Bioscience, Allschwil, CH) at a density of approximately 50′000 cells/cm^2 and were cultured in an incubator at 37° C. with 5% CO2, 95% fresh air and saturated humidity. For uptake assays, cells were seeded on precoated 96-well plates. Assays were performed at confluency, after 6 days in culture.
(§3) BB19 cells were seeded 50′000 cells/cm^2 on 96-well plates (Falcon) and incubated under condition described above for 6 days. Before starting the assay, cells were washed 2 times with pre-warmed Dulbecco's MEM with Glutamax-I (catalog number 61965) (Invitrogen AG, Basel, CH), supplemented with 1% non essential amino acids, 1% sodium pyruvate, 50 μg/ml gentamycin (Invitrogen AG) (DMEM). Cells were then incubated for 15 min at 37° C. and 120 rpm in DMEM with or without the specified concentrations of test compounds under investigation. After this pre-incubation, cells were incubated in DMEM containing [propyl-3H]-dihydro-FK506 (3H-tacrolimus, 1 μCi/ml, 34 nM) and with or without the specified concentrations of test compounds for 1 hour at 37° C. and 120 rpm. During this 1-hour incubation period, influx and efflux of the substrate, ^3H-tacrolimus, occur. After the 1-hour incubation period, assay was terminated by placing the assay plate on ice and washing the cells twice with ice-cold DMEM. Determination of cell associated ^3H-tacrolimus was performed by addition of Insta Gel and scintillation liquid to trypsinized cells followed by analysis on a scintillation counter (Packard TriCarb2000, Can berra Packard S.A.). The results are expressed as: % of control=100×[^3H-tacrolimus conc. with test compound]/[^3H-tacrolimus conc. with vehicle]

The test system of a further data set is male db/db mice. As to the kind of experiment: 4-week study in db/db mice. Format: in vivo. An excerpt:
The animals are maintained (starting at 7-week old) on a 12-hr light and 12-hr dark cycle, and provided with commercial rodent chow, LabDiet® 5K52, and water ad libitum.

For data set [5], the system named is BB19 cells, human BCECs (brain capillary endothelial cells). Kind of data set: Cyclosporin uptake assay. The settings on record: 0.1 μM test compound; 1 hour incubation. Format: cell-based. The protocol:
as §1, §2, §3
The cyclosporin uptake assay was performed similarly as described above for tacrolimus uptake assay except that ^3H-cyclosporin was used in place of ^3H-tacrolimus.

The subject of another data set is male C57BL/6 mice. Kind of data set: Plasma and liver triglyceride in C57BL/6 mice. In kind it is in vivo. On the procedure:
Experimental Design: This study is a 2-week study conducted with male C57BL/6 mice (24 animals, 3 treatment arms, 8 rats/arm) 9-week old at the start of compound treatment. The animals are maintained (starting at 8-week old) on a 12-hr light and 12-hr dark cycle, and provided with commercial rodent chow Purina 5001 and water ad libitum.
The stock solution of vehicle (HCO-60) is composed of 200 mg of HCO-60 per mL of 80% alcohol. Vehicle is prepared by diluting the HCO-60 stock solution 1:10 with saline. Compound 3 stock solutions are prepared in HCO-60 stock solution and diluted with saline or vehicle to the appropriate dose concentration.
Tail-vein-blood samples are collected from each rat 24 hour after the last treatment (day-14) for plasma triglyceride determination. Animals are sacrificed to obtain liver for triglyceride determination.

The conditions of data set [6]: is known to be; cited from earlier work.

For `O=c1c(OCP(=O)(O)O)c(-c2ccc(O)c(O)c2)oc2cc(O)ccc12` [Compound 3, Fisetin-3-O-methylphosphonic acid], in data set [1], the basal glucose result was “reduces basal glucose”, the hepatic glucose output result is “impacts hepatic glucose output; also recorded: reduces hepatic glucose output”, the “insulin output in response to glucose challenge” value was “less insulin output is required” and the “tissue glucose uptake during hyperinsulinemic euglycemic clamp” value was “enhances tissue glucose uptake”. In addition, the “response to IP glucose challenge” value in data set [1] (IP-GTT 1 gm dextrose per kilogram) was “improves response to glucose challenge”. In the data set with ZDF rats [2], the “plasma insulin level during OGTT” value is reported as “raises insulin output”. In addition, the “plasma glucose level during OGTT” value in the data set on ZDF rats [2] (compound 2 100 mg/kg, compound 3 50 mg/kg i.p.) is on record as “protect against hyperglycemia”. Besides, the islet cell apoptosis result with ZDF rats [3] (TUNEL) is recorded as “decreases in islet cell apoptosis”. In addition, in the data set with ZDF rats [3], the “decrease in islet vacuolar degeneration (inhibition)” value turned out to be 43% and the “decrease in pancreatic inflammation (inhibition)” value worked out at 35%. Further, in the data set on male ZDF rats (4 weeks daily i.p., compared to vehicle treated animals), the plasma insulin levels result was “require lower insulin levels to maintain nomal glucose levels”. Also, the plasma glucose levels entry in the data set on male ZDF rats (4 weeks daily i.p., compound 2 100 mg/kg, compound 3 100 mg/kg day 4 and 5, 50 mg/kg day 6-28, rosiglitazone 6 mg/kg) is recorded as “maintains steady glucose levels”. Moreover, in the data set on male ZDF rats (compared to vehicle treated animals), the “glycated hemoglobin levels (% HbA1c) at termination” value is reported as “lower glycated hemoglobin levels”. In addition, the triglycerides result in the data set on male ZDF rats (day 14 and day 21, over vehicle controls) is given as “marked decreases in triglycerides”. For the same compound, the activity at 0.1 µM in data set [4] was determined as 44%. For the same compound, the body weights result in the data set with male db/db mice (4 weeks of daily treatment) is listed as “essentially identical that of vehicle treated animals”. Also, in the data set on male db/db mice (compound 3 10 mg/kg daily i.p.), the “liver triglyceride at sacrifice (day-29)” value is recorded as “significantly lower than vehicle treated mice”, the “plasma cholesterol levels on Day-28” value is “significantly lower than vehicle or rosiglitazone treated mice” and the “plasma triglyceride levels on Day-28” value is recorded as “significantly lower than vehicle or rosiglitazone treated mice”. For the same compound, the “plasma glucose level on Day-28” value with male db/db mice (daily i.p., compound 3 30 and 10 mg/kg, rosiglitazone 10 mg/kg) is reported as “lower than vehicle treated control mice”. Also, the “cell associated ^3H-cyclosporin uptake, % of control” value in [5] is 71 % of control. Also, the liver triglyceride result with male C57BL/6 mice (30 mg/kg daily i.p. for 13 days, compared to vehicle) is recorded as “significantly reduces liver triglyceride”. For the same compound, the plasma triglyceride entry with male C57BL/6 mice (daily i.p. for 13 days, 30 and 3 mg/kg) is listed as “reduces plasma triglyceride”.

As for `O=c1c(O)c(-c2ccc(O)c(O)c2)oc2cc(O)cc(O)c12` [quercetin aglycone, quercetin], the serum half-life in [6] was 19 to 25 h.

Source of the values: US20100297020A1, “PHOSPHORYLATED AND PHOSPHONATED PYRONE ANALOGS FOR THERAPEUTIC TREATMENT” (Limerick Biopharma, Inc., priority 2008, published 2010).
